Measured values from patent US7897582B2, “Oligonucleotide compositions and methods for the modulation of the expression of B7 protein” (Isis Pharmaceuticals, Inc., priority 2003, dated 2011).
Strand notation (5' to 3'): a small letter for the sugar, then the base; units joined by * are phosphorothioate-linked, units joined directly phosphodiester-linked; [ ] holds rarer units or linkages, { } end groups; capitals alone tell only the bases. e = 2'-O-(2-methoxyethyl) (MOE); [5mC] = 5-methylcytosine; d = 2'-deoxy (DNA)

Experiments:
Type in all cases: cell-based
[1] = tested on: Mouse B7-2 mRNA; test: Mouse B7-2 mRNA expression, screened as in Example 4; parameters: % mRNA INHIBITION: concentration or dose not given beside the values; details: for % mRNA INHIBITION: screened as in Example 4; for % mRNA EXPRESSION: screened as in Example 4, basal = 100.0%
Procedure: For ribonuclease protection assays, cells were harvested 18 hours after completion of oligonucleotide treatment using a Totally RNA™ kit (Ambion, Austin, Tex.). The probes for the assay were generated from plasmids pcB7-2 (linearized by digestion with Bgl II) and pTRI-b-actin (Ambion Inc., Austin, Tex.). In vitro transcription of the linearized plasmid from the SP6 promoter was performed in the presence of α-^32P-UTP (800 Ci/mmole) yielding an antisense RNA complementary to the 3′ end of B7-2 (position 1044-1391). The probe was gel-purified after treatment with DNase I to remove DNA template. Ribonuclease protection assays were carried out using an RPA II™ kit (Ambion) according to the manufacturer's directions. Total RNA (5 μg) was hybridized overnight, at 42° C., with 10^5 cpm of the B7-2 probe or a control beta-actin probe. The hybridization reaction was then treated, at 37° C. for 30 minutes, with 0.4 units of RNase A and 2 units of RNase T1. Protected RNA was precipitated, resuspended in 10 μL of gel loading buffer and electrophoresed on a 6% acrylamide gel with 50% w/v urea at 20 W. The gel was then exposed and the lanes quantitated using a PhosphorImager (Molecular Dynamics, Sunnyvale, Calif.) essentially according to the manufacturer's instructions.
Oligonucleotides were screened as described in Example 4.

[2] = tested on: human B7-1; test: Cell surface expression of B7-1 in pcB7-1-transfected COS-7 cells by flow cytometry; details: for % Surface Inhibition / % Surface Expression: COS-7 cells, B7-1 cell surface; for % Surface Expression: basal = 100%; for % B7-1 EXPRESSION: human B7 cell surface expression, Table 16
Procedure: The ability of oligonucleotides to inhibit B7-1 expression was evaluated by measuring the cell surface expression of B7-1 in transfected COS-7 cells by flow cytometry.
A T-175 flask was seeded at 75% confluency with COS-7 cells (ATCC accession No. CRL 1651). The plasmid pcB7-1 was introduced into cells by standard calcium phosphate transfection. Following a 4 hour transfection, the cells were trypsinized and seeded in 12-well dishes at 80% confluency. The cells were allowed to adhere to the plastic for 1 hour and were then washed with phosphate-buffered saline (PBS). OptiMEM™ (GIBCO-BRL, Gaithersburg, Md.) medium was added along with 15 μg/mL of Lipofectin™ (GIBCO-BRL, Gaithersburg, Md.) and oligonucleotide at the indicated concentrations. After four additional hours, the cells were washed with phosphate buffered saline (PBS) and incubated with fresh oligonucleotide at the same concentration in DMEM (Dulbecco et al., Virol., 1959, 8, 396; Smith et al., Virol., 1960, 12, 185) with 10% fetal calf sera (FCS).
In order to monitor the effects of oligonucleotides on cell surface expression of B7-1, treated COS-7 cells were harvested by brief trypsinization 24-48 hours after oligonucleotide treatment. The cells were washed with PBS, then resuspended in 100 μL of staining buffer (PBS, 0.2% BSA, 0.1% azide) with 5 μL conjugated anti-B7-1-antibody (i.e., anti-hCD80-FITC, Ancell, Bayport, Minn.; FITC: fluorescein isothiocyanate). The cells were stained for 30 minutes at 4° C., washed with PBS, resuspended in 300 μL containing 0.5% paraformaldehyde. Cells were harvested and the fluorescence profiles were determined using a flow cytometer.
B7 antisense oligonucleotides were tested for their effect on cell surface expression of both B7-1 and B7-2. Cell surface expression was measured as described in Example 1. Experiments were done for both human B7 and mouse B7.
The oligonucleotides were screened as described in Example 2 except that the concentration of oligonucleotide was varied as shown in Table 18.

[3] = tested on: human B7-2; test: Cell surface expression of B7-2 in transfected COS-7 cells by flow cytometry; details: human B7 cell surface expression; Table 16
Method in brief: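 COS-7 cells transfected with B7-2 plasmid (calcium phosphate), then treated with antisense oligonucleotides with 15 μg/mL Lipofectin for 4 h, followed by oligonucleotide in DMEM/10% FCS. After 24-48 h, cells stained with FITC- or PE-conjugated anti-CD86 for 30 min at 4 °C and analysed by flow cytometry.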

[4] = tested on: Human B7-1 mRNA; test: Human B7-1 mRNA expression in COS-7 cells, screened as in Example 4

## 18102 (antisense e[5mC]*e[5mC]*eT*eT*e[5mC]*dA*d[5mC]*dT*d[5mC]*dT*dG*d[5mC]*dA*dT*dT*eT*eG*eG*eT*eT) [compound 18102]
[1]
  % mRNA INHIBITION: 66.2%
  % mRNA EXPRESSION: 33.8%

## 22335 (antisense e[5mC]*e[5mC]*eT*eT*eG*d[5mC]*dT*dT*d[5mC]*dT*dG*d[5mC]*dG*dG*dA*e[5mC]*eA*e[5mC]*eT*eG) [compound 22335]
[2]; dose 10 nM
  % Surface Inhibition: 19%
  % Surface Expression: 81%
[2]; dose 30 nM
  % Surface Inhibition: 31%
  % Surface Expression: 69%
[2]; dose 100 nM
  % Surface Inhibition: 53%
  % Surface Expression: 47%
[2]; dose 300 nM
  % Surface Inhibition: 62%
  % Surface Expression: 38%
[2]
  % B7-1 EXPRESSION: 23%
[3]
  % B7-2 EXPRESSION: 95%
[4]; 10 nM, COS-7, Table 8
  % mRNA EXPRESSION: 81%
  % mRNA INHIBITION: 19%
[4]; 30 nM, COS-7, Table 8
  % mRNA EXPRESSION: 63%
  % mRNA INHIBITION: 37%
[4]; 100 nM, COS-7, Table 8
  % mRNA EXPRESSION: 43%
  % mRNA INHIBITION: 57%
[4]; 300 nM, COS-7, Table 8
  % mRNA EXPRESSION: 35%
  % mRNA INHIBITION: 65%
[4]; human B7-1 mRNA, Table 7
  % mRNA EXPRESSION: 43%

## 18095 (antisense eA*e[5mC]*eA*eT*eA*d[5mC]*dA*dA*dT*dG*dA*dT*dG*dA*dG*e[5mC]*eA*eG*e[5mC]*eA) [compound 18095]
[1]
  % mRNA INHIBITION: 65.7%
  % mRNA EXPRESSION: 34.3%

## 18100 (antisense e[5mC]*eA*eA*eT*e[5mC]*dA*dG*d[5mC]*dT*dG*dA*dG*dA*dA*d[5mC]*eA*eT*eT*eT*eT) [compound 18100]
[1]
  % mRNA INHIBITION: 32.8%
  % mRNA EXPRESSION: 67.2%

## 18090 (antisense eG*eT*eG*eA*eA*dG*dT*d[5mC]*dG*dT*dA*dG*dA*dG*dT*e[5mC]*e[5mC]*eA*eG*eT) [compound 18090]
[1]
  % mRNA INHIBITION: 63.4%
  % mRNA EXPRESSION: 36.6%

## 22338 (antisense eG*e[5mC]*e[5mC]*eT*e[5mC]*dA*dT*dG*dA*dT*d[5mC]*d[5mC]*d[5mC]*d[5mC]*dA*e[5mC]*eG*eA*eT*e[5mC]) [compound 22338]
[2]; dose 10 nM
  % Surface Inhibition: 22%
  % Surface Expression: 78%
[2]; dose 30 nM
  % Surface Inhibition: 35%
  % Surface Expression: 65%
[2]; dose 100 nM
  % Surface Inhibition: 50%
  % Surface Expression: 50%
[2]; dose 300 nM
  % Surface Inhibition: 60%
  % Surface Expression: 40%
[2]
  % B7-1 EXPRESSION: 22%
[3]
  % B7-2 EXPRESSION: 96%
[4]; 10 nM, COS-7, Table 8
  % mRNA EXPRESSION: 68%
  % mRNA INHIBITION: 32%
[4]; 30 nM, COS-7, Table 8
  % mRNA EXPRESSION: 60%
  % mRNA INHIBITION: 40%
[4]; 100 nM, COS-7, Table 8
  % mRNA EXPRESSION: 53%
  % mRNA INHIBITION: 47%
[4]; 300 nM, COS-7, Table 8
  % mRNA EXPRESSION: 41%
  % mRNA INHIBITION: 59%
[4]; human B7-1 mRNA, Table 7
  % mRNA EXPRESSION: 40%

## 18103 (antisense eT*eG*e[5mC]*eA*eT*dG*dT*dT*dA*dT*d[5mC]*dA*d[5mC]*d[5mC]*dA*eT*eA*e[5mC]*eT*e[5mC]) [compound 18103]
[1]
  % mRNA INHIBITION: 69.8%
  % mRNA EXPRESSION: 30.2%

## 22334 (antisense eA*eA*eG*e[5mC]*eA*dG*dT*dA*dG*dG*dT*d[5mC]*dA*dG*dG*e[5mC]*eA*eG*e[5mC]*eA) [compound 22334]
[2]
  % B7-1 EXPRESSION: 28%
[3]
  % B7-2 EXPRESSION: 92%
[4]; human B7-1 mRNA, Table 7
  % mRNA EXPRESSION: 43%

## 18084 (antisense eG*e[5mC]*eT*eG*e[5mC]*d[5mC]*dT*dA*d[5mC]*dA*dG*dG*dA*dG*d[5mC]*e[5mC]*eA*e[5mC]*eT*e[5mC]) [compound 18084]
[1]
  % mRNA INHIBITION: 63.6%
  % mRNA EXPRESSION: 36.4%

## 22325 (eG*e[5mC]*e[5mC]*eA*eG*dG*dA*dT*d[5mC]*dA*d[5mC]*dA*dA*dT*dG*eG*eA*eG*eA*eG) [compound 22325]
[2]
  % B7-1 EXPRESSION: 32%
[3]
  % B7-2 EXPRESSION: 89%
[4]; human B7-1 mRNA, Table 7
  % mRNA EXPRESSION: 46%

## 18093 (antisense eG*eG*e[5mC]*eT*eG*dT*dT*dG*dG*dA*dG*dA*dT*dA*d[5mC]*eT*eG*eA*eA*e[5mC]) [compound 18093]
[1]
  % mRNA INHIBITION: 67.3%
  % mRNA EXPRESSION: 32.7%

## 18087 (antisense eA*eG*e[5mC]*eT*eT*dG*d[5mC]*dG*dT*d[5mC]*dT*d[5mC]*d[5mC]*dA*d[5mC]*eG*eG*eA*eA*eA) [compound 18087]
[1]
  % mRNA INHIBITION: 57.9%
  % mRNA EXPRESSION: 42.1%
